In patent publication US4336375A, “Cephalosporanic acid derivatives” (American Cyanamid Company, priority 1980, dated 1982):
In brackets after ≈: the same amount, converted by molar mass. Read-outs that look alike come from different tables or passages of the source.

Key:
[1] = system: Pseudomonas aeruginosa G236; assay: In vitro MIC, agar dilution, Pseudomonas aeruginosa G236; format: cell-based; details: read-out: Minimal Inhibitory Concentration
Protocol: (§1) The in vitro activity of representative compounds of the present invention are given in the following Table I in terms of minimal inhibitory concentration. The test used was the standard agar dilution test using a Steers multiple inocula replicator and incubating at 35° C. for 18 hours in conventional nutrient agar.

[2] = system: Pseudomonas aeruginosa PD05141; assay: In vitro MIC, agar dilution, Pseudomonas aeruginosa PD05141; format: cell-based; details: Pseudomonas aeruginosa PD05141; agar dilution, 35° C., 18 hours, nutrient agar; read-out: Minimal Inhibitory Concentration
Protocol: as §1

[3] = system: Pseudomonas aeruginosa 12-4-4; assay: In vitro MIC, agar dilution, Pseudomonas aeruginosa 12-4-4; format: cell-based; details: 1244; Pseudomonas aeruginosa 12-4-4; agar dilution, 35° C., 18 hours, nutrient agar; read-out: Minimal Inhibitory Concentration
Protocol: as §1

[4] = system: Pseudomonas aeruginosa UCS 76-13; assay: In vitro MIC, agar dilution, Pseudomonas aeruginosa UCS 76-13; format: cell-based; details: UCS7613; Pseudomonas aeruginosa UCS 76-13; agar dilution, 35° C., 18 hours, nutrient agar; read-out: Minimal Inhibitory Concentration
Protocol: as §1

[5] = system: Klebsiella pneumoniae MA75-1; assay: In vitro MIC, agar dilution, Klebsiella pneumoniae MA75-1; format: cell-based; details: MA751; Klebsiella pneumoniae MA75-1; agar dilution, 35° C., 18 hours, nutrient agar; read-out: Minimal Inhibitory Concentration
Protocol: as §1

[6] = system: Klebsiella pneumoniae W75-2; assay: In vitro MIC, agar dilution, Klebsiella pneumoniae W75-2; format: cell-based; details: W752; Klebsiella pneumoniae W75-2; agar dilution, 35° C., 18 hours, nutrient agar; read-out: Minimal Inhibitory Concentration
Protocol: as §1

[7] = system: Klebsiella pneumoniae W75-4; assay: In vitro MIC, agar dilution, Klebsiella pneumoniae W75-4; format: cell-based; details: W754; Klebsiella pneumoniae W75-4; agar dilution, 35° C., 18 hours, nutrient agar; read-out: Minimal Inhibitory Concentration
Protocol: as §1

[8] = system: Klebsiella pneumoniae UR76-1; assay: In vitro MIC, agar dilution, Klebsiella pneumoniae UR76-1; format: cell-based; details: UR761; Klebsiella pneumoniae UR76-1; agar dilution, 35° C., 18 hours, nutrient agar; read-out: Minimal Inhibitory Concentration
Protocol: as §1

Klebsiella pneumoniae AD = assay: In vitro MIC, agar dilution, Klebsiella pneumoniae AD; format: cell-based; details: Klebsiella pneumoniae AD; agar dilution, 35° C., 18 hours, nutrient agar; read-out: Minimal Inhibitory Concentration
Protocol: as §1

[9] = system: Enterobacter aerogenes UR76-3; assay: In vitro MIC, agar dilution, Enterobacter aerogenes UR76-3; format: cell-based; details: Klebsiella aerogenes, UR763; Enterobacter aerogenes UR76-3; agar dilution, 35° C., 18 hours, nutrient agar; read-out: Minimal Inhibitory Concentration
Protocol: as §1

[10] = system: Enterobacter cloacae MA75-1; assay: In vitro MIC, agar dilution, Enterobacter cloacae MA75-1; format: cell-based; details: read-out: Minimal Inhibitory Concentration
Protocol: as §1

[11] = system: Enterobacter cloacae OSU75-2; assay: In vitro MIC, agar dilution, Enterobacter cloacae OSU75-2; format: cell-based; details: OSU752; Enterobacter cloacae OSU75-2; agar dilution, 35° C., 18 hours, nutrient agar; read-out: Minimal Inhibitory Concentration
Protocol: as §1

Serratia K101 = assay: In vitro MIC, agar dilution, Serratia K101; format: cell-based; details: Serratia K101; agar dilution, 35° C., 18 hours, nutrient agar; read-out: Minimal Inhibitory Concentration
Protocol: as §1

Serratia marcens K77-1 = assay: In vitro MIC, agar dilution, Serratia marcens K77-1; format: cell-based; details: K771; Serratia marcens K77-1; agar dilution, 35° C., 18 hours, nutrient agar; read-out: Minimal Inhibitory Concentration
Protocol: as §1

Serratia marcens QHC77-2 = assay: In vitro MIC, agar dilution, Serratia marcens QHC77-2; format: cell-based; details: QHC772; Serratia marcens QHC77-2; agar dilution, 35° C., 18 hours, nutrient agar; read-out: Minimal Inhibitory Concentration
Protocol: as §1

Proteus vulgaris N74-1 = assay: In vitro MIC, agar dilution, Proteus vulgaris N74-1; format: cell-based; details: N741, 35° C., 18 hours, nutrient agar, read-out: Minimal Inhibitory Concentration
Protocol: as §1

Proteus morganii K72 = assay: In vitro MIC, agar dilution, Proteus morganii K72; format: cell-based; details: Morganella morganii; Proteus morganii K72; agar dilution, 35° C., 18 hours, nutrient agar; read-out: Minimal Inhibitory Concentration
Protocol: as §1

Proteus rettgeri N76-1 = assay: In vitro MIC, agar dilution, Proteus rettgeri N76-1; format: cell-based; details: Providencia rettgeri, N761; Proteus rettgeri N76-1; agar dilution, 35° C., 18 hours, nutrient agar; read-out: Minimal Inhibitory Concentration
Protocol: as §1

[12] = system: Escherichia coli ESS22-31; assay: In vitro MIC, agar dilution, Escherichia coli ESS22-31; format: cell-based; details: ESS2231; Escherichia coli ESS22-31; agar dilution, 35° C., 18 hours, nutrient agar; read-out: Minimal Inhibitory Concentration
Protocol: as §1

Escherichia coli W75-1 = assay: In vitro MIC, agar dilution, Escherichia coli W75-1; format: cell-based; details: W751, 35° C., 18 hours, nutrient agar, read-out: Minimal Inhibitory Concentration
Protocol: as §1

Escherichia coli OSU75-1 = assay: In vitro MIC, agar dilution, Escherichia coli OSU75-1; format: cell-based; details: OSU751, 35° C., 18 hours, nutrient agar, read-out: Minimal Inhibitory Concentration
Protocol: as §1

Escherichia coli 311 [13] = assay: In vitro MIC, agar dilution, Escherichia coli 311; format: cell-based; details: 35° C., 18 hours, nutrient agar, read-out: Minimal Inhibitory Concentration
Protocol: as §1

[14] = system: Staphylococcus aureus Q74-1; assay: In vitro MIC, agar dilution, Staphylococcus aureus Q74-1; format: cell-based; details: Q741; Staphylococcus aureus Q74-1; agar dilution, 35° C., 18 hours, nutrient agar; read-out: Minimal Inhibitory Concentration
Protocol: as §1

[15] = system: Staphylococcus aureus Q74-6; assay: In vitro MIC, agar dilution, Staphylococcus aureus Q74-6; format: cell-based; details: Q746; Staphylococcus aureus Q74-6; agar dilution, 35° C., 18 hours, nutrient agar; read-out: Minimal Inhibitory Concentration
Protocol: as §1

Enterococcus SM77-15 = assay: In vitro MIC, agar dilution, Enterococcus SM77-15; format: cell-based; details: SM7715; Enterococcus SM77-15; agar dilution, 35° C., 18 hours, nutrient agar; read-out: Minimal Inhibitory Concentration
Protocol: as §1

Escherichia coli 311 [16] = assay: In vivo systemic lethal infection of mice, Escherichia coli 311; design: species or system Charles River CD-1 mice; details: CD-1 mice
Text: As shown in Table II these compounds show high in vivo antibacterial activity against Escherichia coli 311 and Klebsiella pneumoniae W-75-2 when administered by a single subcutaneous dose to groups of Charles River CD-1 mice, weighing about 20 g. each. The mice are infected intraperitoneally with a lethal dose of these bacteria.

[17] = single subcutaneous dose 1 mg./kg.
[18] = single subcutaneous dose 2 mg./kg.
[19] = single subcutaneous dose 4 mg./kg.

SMILES	MIC [2] [µg/mL]	MIC [3] [µg/mL]	MIC [4] [µg/mL]	MIC [5] [µg/mL]	MIC [6] [µg/mL]	MIC [7] [µg/mL]	MIC [8] [µg/mL]	MIC (Klebsiella pneumoniae AD) [µg/mL]	MIC [9] [µg/mL]	MIC [11] [µg/mL]	MIC (Serratia K101) [µg/mL]	MIC (Serratia marcens K77-1) [µg/mL]	MIC (Serratia marcens QHC77-2) [µg/mL]	MIC (Proteus vulgaris N74-1) [µg/mL]	MIC (Proteus morganii K72) [µg/mL]	MIC (Proteus rettgeri N76-1) [µg/mL]	MIC [12] [µg/mL]	MIC (Escherichia coli W75-1) [µg/mL]	MIC (Escherichia coli OSU75-1) [µg/mL]	MIC (Escherichia coli 311 [13]) [µg/mL]	also measured
CO/N=C(\C(=O)NC1C(=O)N2C(C(=O)O)=C(CSc3nnc(-n4nc(C)cc4-c4ccccc4)n3N)CSC12)c1csc(N)n1 (stereo not drawn) [Compound III, 7-[2-(Syn-methoxyimino)-2-(2-aminothiazol-4-yl)acetamido]-3-[4-amino-5-(1-[3-methyl-5-phenyl]pyrazolyl)-1,2,4-triazol-3-ylthiomethyl]-3-cephem-4-carboxylic acid]	> 128	128 (≈ 192 µM)	> 128	0.5 (≈ 0.749 µM)	1 (≈ 1.5 µM)	1 (≈ 1.5 µM)	4 (≈ 5.99 µM)	0.5 (≈ 0.749 µM)	0.25 (≈ 0.374 µM)	4 (≈ 5.99 µM)	4 (≈ 5.99 µM)	4 (≈ 5.99 µM)	8 (≈ 12 µM)	1 (≈ 1.5 µM)	2 (≈ 3 µM)	1 (≈ 1.5 µM)	≤ 0.12	1 (≈ 1.5 µM)	1 (≈ 1.5 µM)	0.25 (≈ 0.374 µM)	MIC ([1]; Pseudomonas aeruginosa, G236, 18 h): > 128 µg/mL; MIC ([10]; MA751, Enterobacter cloacae MA75-1, agar dilution, 35° C., 18 hours, nutrient agar): 128 µg/mL (≈ 192 µM); MIC [14]: 2 µg/mL (≈ 3 µM); MIC [15]: 32 µg/mL (≈ 47.9 µM); MIC (Enterococcus SM77-15): > 128 µg/mL; Alive/Total Mice Tested, 7 Days After Infection (Escherichia coli 311 [16]; [17]): 0/5; Alive/Total Mice Tested, 7 Days After Infection (Escherichia coli 311 [16]; [18]): 0/5; Alive/Total Mice Tested, 7 Days After Infection (Escherichia coli 311 [16]; [19]): 5/5; Alive/Total Mice Tested, 7 Days After Infection (Escherichia coli 311 [16]; single subcutaneous dose 8 mg./kg.): 5/5
CO/N=C(\C(=O)NC1C(=O)N2C(C(=O)O)=C(CSc3n[nH]c(-n4cccn4)n3)CSC12)c1csc(N)n1 (stereo not drawn) [Compound V, 7-[2-(Syn-methoxyimino)-2-(2-aminothiazol-4-yl)acetamido]-3-[5-(1-pyrazolyl)-1,2,4-triazol-3-ylthiomethyl]-3-cephem-4-carboxylic acid]	64 (≈ 114 µM)	16 (≈ 28.4 µM)	64 (≈ 114 µM)	≤ 0.12	≤ 0.12	≤ 0.12	0.25 (≈ 0.444 µM)	≤ 0.12	≤ 0.12	4 (≈ 7.11 µM)	0.5 (≈ 0.889 µM)	0.5 (≈ 0.889 µM)	0.25 (≈ 0.444 µM)	2 (≈ 3.55 µM)	≤ 0.12	≤ 0.12	≤ 0.12	≤ 0.12	≤ 0.12	≤ 0.12	MIC ([1]; Pseudomonas aeruginosa G236, agar dilution, 35° C., 18 hours, nutrient agar): 16 µg/mL (≈ 28.4 µM); MIC ([10]; Enterobacter cloacae, MA751, 18 h): > 128 µg/mL; MIC [14]: 1 µg/mL (≈ 1.78 µM); MIC [15]: 64 µg/mL (≈ 114 µM); MIC (Enterococcus SM77-15): > 128 µg/mL; Alive/Total Mice Tested, 7 Days After Infection (Escherichia coli 311 [16]; single subcutaneous dose 0.25 mg./kg.): 0/5; Alive/Total Mice Tested, 7 Days After Infection (Escherichia coli 311 [16]; single subcutaneous dose 0.5 mg./kg.): 0/5; Alive/Total Mice Tested, 7 Days After Infection (Escherichia coli 311 [16]; [17]): 5/5; Alive/Total Mice Tested, 7 Days After Infection (Escherichia coli 311 [16]; [18]): 5/5; Alive/Total Mice Tested, 7 Days After Infection (Escherichia coli 311 [16]; [19]): 5/5
